The numbers were not newly measured in patent US4344438A, “Optical sensor of plasma constituents” (The United States of America as represented by the …, priority 1980, dated 1982), which cites them from elsewhere.

For this data set, the target named is Concanavalin-A (Con-A). To be noted: from So and Goldstein, Biochem., Biophys. Acta 165, 398 (1968); read-out: Binding constant K of sugar to Concanavalin-A.

Turning to `OC[C@H]1O[C@@](CO)(O[C@H]2O[C@H](CO)[C@@H](O)[C@H](O)[C@H]2O)[C@@H](O)[C@@H]1O` [Sucrose], the Kd is 1900 µM.

As to `OC[C@H]1O[C@H](OC[C@H]2OC(O)[C@H](O)[C@@H](O)[C@@H]2O)[C@H](O)[C@@H](O)[C@@H]1O` (some centres unmarked) [Isomaltose], the Kd is 180 µM.

`O=[N+]([O-])c1ccc(O[C@H]2O[C@H](CO)[C@@H](O)[C@H](O)[C@@H]2O)cc1` [p-nitrophenol-α-D mannopyranoside]: the Kd was 29.4 µM.

In the case of `O=C(CO)[C@@H](O)[C@H](O)[C@H](O)CO` [Fructose], the Kd was 730 µM.

Consider `OC[C@H]1O[C@H](O[C@H]2[C@H](O)[C@@H](O)C(O)O[C@@H]2CO)[C@H](O)[C@@H](O)[C@@H]1O` (mixture of isomers) [Maltose], for which the Kd is 350 µM.
